For one compound, Km results are on record in PMC7194293, “Living on the Edge: Physiological and Kinetic Trade-Offs Shape Thermal Tolerance in Intertidal Crabs From Tropical to Sub-Antarctic South America” (Frontiers in Physiology, 2020).

What all share (assay): NADH oxidation at […] nm, muscle homogenate supernatant
Experiment [1] relates to T1, LDH (muscle lactate dehydrogenase).
T1 construct: native, not purified; supernatant of abdominal muscle homogenate, pooled crabs, Ushuaia, Argentina
The format is biochemical, Acanthocyclus albatrossis. Conditions: 150 uM NADH, 80 mM imidazole-HCl pH 6.9, 9 °C (FRT); read-out: Km^Pyr / (mM) / FRT.

The test system of experiment [2] is T2, LDH (muscle lactate dehydrogenase).
T2 construct: native, not purified; supernatant of abdominal muscle homogenate, pooled crabs, Pernambuco, Brazil
It counts as biochemical, Ucides cordatus. To be noted: 150 uM NADH, 80 mM imidazole-HCl pH 6.9, 26 °C (FRT); read-out: Km^Pyr / (mM) / FRT.

Experiment [3] concerns T3, LDH (muscle lactate dehydrogenase).
T3 construct: native, not purified; supernatant of abdominal muscle homogenate, pooled crabs, Rio Grande, Brazil
The format is biochemical, Leptuca uruguayensis. Conditions: 150 uM NADH, 80 mM imidazole-HCl pH 6.9, 15 °C (FRT); read-out: Km^Pyr / (mM) / FRT.

Experiment [4] relates to T1, LDH (muscle lactate dehydrogenase). The format is biochemical, Halicarcinus planatus. To be noted: 150 uM NADH, 80 mM imidazole-HCl pH 6.9, 9 °C (FRT); read-out: Km^Pyr / (mM) / FRT.
Experiment [5] relates to T2, LDH (muscle lactate dehydrogenase). It counts as biochemical, Uca maracoani. Conditions: 150 uM NADH, 80 mM imidazole-HCl pH 6.9, 26 °C (FRT); read-out: Km^Pyr / (mM) / FRT.
For experiment [6] the test system is unchanged. It counts as biochemical, Ocypode quadrata. Conditions: 150 uM NADH, 80 mM imidazole-HCl pH 6.9, 26 °C (FRT); read-out: Km^Pyr / (mM) / FRT.
The test system is the same in experiment [7]. It counts as biochemical, Pachygrapsus transversus. To be noted: 150 uM NADH, 80 mM imidazole-HCl pH 6.9, 26 °C (FRT); read-out: Km^Pyr / (mM) / FRT.
For experiment [8] the test system is unchanged. The format is biochemical, Goniopsis cruentata. Conditions: 150 uM NADH, 80 mM imidazole-HCl pH 6.9, 26 °C (FRT); read-out: Km^Pyr / (mM) / FRT.
For experiment [9], the system named is T3, LDH (muscle lactate dehydrogenase). It counts as biochemical, Neohelice granulata. Conditions: 150 uM NADH, 80 mM imidazole-HCl pH 6.9, 15 °C (FRT); read-out: Km^Pyr / (mM) / FRT.
The test system of experiment [10] is T2, LDH (muscle lactate dehydrogenase). It counts as biochemical, Cardisoma guanhumi. To be noted: 150 uM NADH, 80 mM imidazole-HCl pH 6.9, 26 °C (FRT); read-out: Km^Pyr / (mM) / FRT.
For experiment [11] the test system is unchanged. The format is biochemical, Aratus pisonii. To be noted: 150 uM NADH, 80 mM imidazole-HCl pH 6.9, 26 °C (FRT); read-out: Km^Pyr / (mM) / FRT.
The test system of experiment [12] is T3, LDH (muscle lactate dehydrogenase). It counts as biochemical, Armases rubripes. Conditions: 150 uM NADH, 80 mM imidazole-HCl pH 6.9, 15 °C (FRT); read-out: Km^Pyr / (mM) / FRT.

Molecules are shown by their SMILES. Where two headings read alike, the source gives them in different places.

As to `CC(=O)C(=O)O` [pyruvate], the Km stood at 0.3 mM in experiment [1]; 0.17 ± 0.01 mM in [2]; 0.16 mM in experiment [3]; 0.5 mM in experiment [4]; 0.49 ± 0.05 mM in [5]; 0.15 ± 0.02 mM in [6]. Further, the Km in experiment [7] worked out at 0.2 ± 0.01 mM; in [8] it was 0.1 mM; in [9], 0.32 ± 0.03 mM; in experiment [10], 0.17 ± 0.01 mM; in [11], 0.11 mM; in experiment [12], 0.15 ± 0.01 mM.
